In assay [1] the test system is hair cell genes Atoh1, Pou4f3, Myo7a in OC explants. Put plainly: Hair cell gene expression in organ of Corti explants (RT-PCR). Type of assay: cell-based, mouse. The conditions noted are these: 4 days, vs DMSO. The protocol: OC explants were isolated from postnatal day 2 (P2) Wistar rats, P0-P2 mice (Lgr5-GFP or Atoh1-nGFP mice). Dissection of the cochlea under a stereomicroscope (Nikon SMZ800, Japan) allowed OC separation from stria vascularis and modiolus, and the sensory epithelium was plated with hair cells facing up on Cell-Tak (Corning, United States)-coated transwell-clear inserts (6-well format, 0.4 μm pore, Corning, United States). Dissection medium was exchanged for 1.5 ml full otic medium supplemented with 10% FBS (Invitrogen) and 0.01% Ampicillin (Sigma), added under the insert membrane, maintaining the OC under a thin film of medium during culture at 37°C. 5-ethyl-2′-deoxyuridine (EdU, 5 μM, Life Technologies) was added directly in the medium when indicated.
Concentrations of small molecule GSIs {LY411575, CPD3, CPD8, DAPT (N-[N-(3,5-Difluorophenacetyl)-L-alanyl]-S-phenylglycine t-butyl ester; Sigma)} were prepared in DMSO and are indicated in Figure Legends and Results. DMSO included as Control. Treatment groups were assigned randomly.
(§1) Cells or tissue were lysed using RLT Lysis Buffer (Qiagen) and high purity RNA was prepared on the MagNA Pure instrument using MagNA Pure 96 Cellular RNA LV Kit (Roche). Reagents from Thermo Fisher were used for cDNA synthesis by reverse transcription using random hexamers. Resulting cDNA was RNAse H treated and amplified by TaqMan GEX mastermix and PCR primers and probes for human ATOH1 (Hs00944192_s1) and TBP (Hs00427620_m1), mouse Tbp (Mm00446971_m1), Atoh1 (Mm00476035_s1), Hes5 (Mm00439311_g1), Pouf4s (Mm04213795_s1), and Myo7a (Mm01274015_m1) on the Applied Biosystems QuantStudio 7 Flex Real-Time PCR System. Normalized to Tbp, relative gene expression fold-change was quantified and compared between experimental and control conditions by ΔΔCt calculation.
FIGURE 2 GSI-mediated induction of hair cell gene expression and de novo generation of hair cells in the neonatal cochlear sensory epithelium. (A) Gene expression changes of Atoh1, Pou4f3, and Myo7a in response to Notch pathway inhibition by CPD3 (solid lines, triangles) and CPD8 (dashed lines, open square) in otic spheres. Gene expression is reported as fold-change relative to carrier control-treated (DMSO, 0.05%). (n = 9–12). […] (B) Gene expression analysis for the hair cell genes Atoh-1, Myo7a, and Pou4f3. DMSO control n = 13, CPD3 n = 12, LY411575 n = 9, DAPT n = 6 from 2–4 independent experiments. OC explants were cultured for 4 days with/without GSI prior to lysis and analysis. One-way ANOVA with Dunnett’s multiple comparison test, each condition compared to DMSO control. (*p < 0.05, **p < 0.005, ***p < 0.001). (C) Cell counts of Atoh1 positive HCs (OHC left, IHC right) in the mouse cochlear sensory epithelium in the mid-apex region after 7 days in culture with different γ-secretase inhibitors. One-way ANOVA Dunnett’s multiple comparison test, each condition compared to DMSO control. (*p < 0.05; n = 3–5 independent experiments). (D) Quantification of Pou4f3 positive HCs (OHC left, IHC right) in the cochlear sensory epithelium from P2 rats in the apical domain after 8 days in culture with different γ-secretase inhibitors. One-way ANOVA with Dunnett’s multiple comparison test, each condition compared to DMSO control (*p < 0.05, n = 3). Representative immunohistological images of the apical domain after 8 days incubation (inset). scale bar = 20 μm. (E) Quantification of Pou4f3 positive OHCs in the apex, middle and basal domain of organ of Corti explants from rats after 4 days of CPD3 treatment compared to DMSO (*p < 0.05, unpaired t-test) n = 4–6 explants from 2 independent experiments.

The test system of assay [2] is Atoh1, Pou4f3, Myo7a expression in otic spheres. The experiment in a line: Otic sphere assay, hair cell gene expression. Type of assay: cell-based, mouse. As for the experimental part:
The generation of otic spheres followed previously described protocols ([Oshima et al., 2009]) with modifications during differentiation phase to test GSIs. Briefly, OCs were dissociated and single cells were deposited in ultralow-cluster plates (Corning) and expanded in “full otic medium” consisting of DMEM/F12, supplemented with N2, B27 (Thermo Fisher), EGF (20 ng/ml; Chemicon), bFGF (10 ng/ml; Chemicon), IGF-1 (50 ng/ml; Chemicon), and heparan sulfate (50 ng/ml; Sigma-Aldrich). After culturing for 3–4 days at 37°C, spheres were collected, plated in cell culture-treated 96 well-plate and cultured in DMEM/F12, supplemented with N2, B27 with/without GSIs for 7 days after which they were lysed for RNA extraction.
as §1
CPD3 and CPD8 were further compared for their potency to induce hair cell gene expression in otic sphere assays ([Oshima et al., 2009]). Cells were first expanded in presence of growth factors, and in a second step differentiated by growth factor removal and GSI treatment. […] This indicated a modest advantage of CPD3 in eliciting expression of the early hair cell marker Atoh1, but similar potency on expression of some later markers of HC differentiation, Pou4f3 and Myo7a (Figure 2A). From the results of two screening assays, CPD3 was selected for additional characterization studies based on its lower IC50 to induce Atoh1/ATOH1 expression in the otic spheres and LS174T cells, respectively.

In assay [1] (1 μM), `COc1ccc2c(c1)N1CCC(C)(C)C1=CC(=O)[C@H]2NC(=O)[C@H](C)NC(=O)CCC(F)(F)F` [CPD3] came in with an Atoh1 expression of 3.7 ± 0.54 fold, a Myo7a expression of 1.73 ± 0.33 fold and a Pou4f3 expression of 2.04 ± 0.35 fold. Besides, the concentration for half-maximal inhibition (IC50) in assay [2] (Mus musculus, 168 h, 7 days differentiation with GSI, read-out: IC50 for Atoh1 upregulation) was found to be 6.7 nM. Besides, the “Induction of Atoh1, Pou4f3 and Myo7a expression” value in assay [2] (dose-responsive, p < 0.05) is given as “significantly induced”.

In assay [1] (5 μM), `C[C@H](NC(=O)[C@@H](O)c1cc(F)cc(F)c1)C(=O)N[C@@H]1C(=O)N(C)c2ccccc2-c2ccccc21` [LY411575] showed an Atoh1 expression of 4.34 ± 0.82 fold, a Myo7a expression of 1.42 ± 0.31 fold and a Pou4f3 expression of 1.46 ± 0.26 fold.

One may read the IC50 as the concentration that inhibits the measured activity by half.
